Test results as given in ChEMBL document CHEMBL4321865, “Discovery of Novel Inhibitors of LpxC Displaying Potent in Vitro Activity against Gram-Negative Bacteria” (J Med Chem, 2020).
Converted amounts (≈) assume the structure as drawn.

Tests used:
Pseudomonas aeruginosa [1] = assay: microbe, parasite or virus in culture; settings: ATCC 27853
Description: Antimicrobial activity against Pseudomonas aeruginosa ATCC 27853 by broth microdilution method

[2] = system: T1, UDP-3-O-acyl-N-acetylglucosamine deacetylase (Escherichia coli K-12), P0A725 [C125S]
T1 sequence (whole entry): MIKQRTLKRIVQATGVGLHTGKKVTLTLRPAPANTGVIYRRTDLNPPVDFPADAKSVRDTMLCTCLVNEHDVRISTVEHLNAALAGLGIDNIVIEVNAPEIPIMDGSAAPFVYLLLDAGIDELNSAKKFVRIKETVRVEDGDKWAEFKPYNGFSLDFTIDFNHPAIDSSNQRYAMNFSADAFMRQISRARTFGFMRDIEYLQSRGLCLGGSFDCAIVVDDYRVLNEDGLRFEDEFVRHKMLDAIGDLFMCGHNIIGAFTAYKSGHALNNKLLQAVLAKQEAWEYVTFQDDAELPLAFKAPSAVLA

[3] = system: T2, UDP-3-O-acyl-N-acetylglucosamine deacetylase (Pseudomonas aeruginosa (strain ATCC 15692 / PAO1 / 1C / PRS 101 / LMG12228)), P47205 [C40S]
T2 sequence (whole entry): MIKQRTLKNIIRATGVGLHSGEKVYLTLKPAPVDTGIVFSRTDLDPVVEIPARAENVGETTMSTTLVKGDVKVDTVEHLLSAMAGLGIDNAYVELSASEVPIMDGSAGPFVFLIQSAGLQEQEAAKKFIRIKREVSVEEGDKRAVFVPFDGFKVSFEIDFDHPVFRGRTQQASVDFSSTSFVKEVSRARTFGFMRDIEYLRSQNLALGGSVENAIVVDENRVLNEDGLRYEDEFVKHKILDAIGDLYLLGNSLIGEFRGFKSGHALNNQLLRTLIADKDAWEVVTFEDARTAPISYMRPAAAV

Escherichia coli [4] = assay: Antibacterial activity against Escherichia coli infected in cyclophosphamide-induced NMRI/ICR CD-1 mouse model of neutropenic thigh infection assessed as reduction in thigh bacterial load at 150 mg/kg, sc measured after 22 hrs relative to control; assay type: functional
[5] = mouse, plasma, 1 µM
Description: Protein binding in mouse plasma assessed as fraction unbound at 1 uM by equilibrium dialysis method

[6] = Cmax in NMRI/ICR CD-1 mouse at 50 mg/kg, sc by LC-MS/MS analysis; assay type: ADME, organism-based; design: dose 50 mg/kg, route subcutaneous; settings: in vivo
physchem [7] = settings: DMSO, pH 4
Description: Solubility of the compound in DMSO at pH 4 incubated for 24 hrs by LC-UV method

Escherichia coli [8] = assay: microbe, parasite or virus in culture; settings: ATCC 25922
Description: Antibacterial activity against wild-type Escherichia coli ATCC 25922 by broth microdilution method

in vivo = settings: NMRI/ICR CD-1, mouse, sc, 50 mg/kg
Klebsiella pneumoniae = assay: microbe, parasite or virus in culture; settings: T 6474
Description: Antibacterial activity against multi-drug resistant Klebsiella pneumoniae T 6474 by broth microdilution method

[9] = Tmax in NMRI/ICR CD-1 mouse at 50 mg/kg, sc by LC-MS/MS analysis; assay type: ADME, organism-based; settings: in vivo
Pseudomonas aeruginosa [10] = assay: microbe, parasite or virus in culture; settings: PAO1
Description: Antimicrobial activity against wild-type Pseudomonas aeruginosa PAO1 by broth microdilution method

[11] = Apparent clearance in NMRI/ICR CD-1 mouse at 50 mg/kg, sc by LC-MS/MS analysis; assay type: ADME, organism-based; settings: in vivo
Mus musculus [12] = assay: Apparent unbound clearance in NMRI/ICR CD-1 mouse at 50 mg/kg, sc by LC-MS/MS analysis; assay type: ADME, organism-based; settings: in vivo
Escherichia coli [13] = assay: Antibacterial activity against Escherichia coli infected in cyclophosphamide-induced NMRI/ICR CD-1 mouse model of neutropenic thigh infection assessed as reduction in thigh bacterial load at 50 mg/kg, sc measured after 22 hrs relative to control; assay type: functional
[14] = mouse, in vivo, sc, 50 mg/kg
physchem [15] = settings: DMSO, pH 7
Description: Solubility of the compound in DMSO at pH 7 incubated for 24 hrs by LC-UV method

physchem [16] = settings: n-octanol/phosphate buffered saline, pH 7.4
Description: n-Octanol/phosphate buffered saline partition coefficient, log D of the compound at pH 7.4 by LC-UV method

physchem [17] = settings: DMSO, pH 9
Description: Solubility of the compound in DMSO at pH 9 incubated for 24 hrs by LC-UV method

Pseudomonas aeruginosa [18] = assay: Antimicrobial activity against Pseudomonas aeruginosa PA2616 harboring delta mexAB-OprM mutant by broth microdilution method; assay type: functional
[19] = AUC (0 to 24 hrs) in NMRI/ICR CD-1 mouse at 150 mg/kg, sc by LC-MS/MS analysis; assay type: ADME, organism-based; design: dose 150 mg/kg, time < 24 hr, route subcutaneous; settings: in vivo
[20] = Tmax in NMRI/ICR CD-1 mouse at 150 mg/kg, sc by LC-MS/MS analysis; assay type: ADME, organism-based; settings: in vivo
[21] = Free AUC (0 to 24 hrs) in NMRI/ICR CD-1 mouse at 150 mg/kg, sc by LC-MS/MS analysis; assay type: ADME, organism-based; settings: in vivo
[22] = Apparent clearance in NMRI/ICR CD-1 mouse at 150 mg/kg, sc by LC-MS/MS analysis; assay type: ADME, organism-based; settings: in vivo
Mus musculus [23] = assay: Apparent unbound clearance in NMRI/ICR CD-1 mouse at 150 mg/kg, sc by LC-MS/MS analysis; assay type: ADME, organism-based; settings: in vivo
[24] = Apparent clearance in NMRI/ICR CD-1 mouse at 75 mg/kg, sc by LC-MS/MS analysis; assay type: ADME, organism-based; settings: in vivo
[25] = Free AUC (0 to 24 hrs) in NMRI/ICR CD-1 mouse at 75 mg/kg, sc by LC-MS/MS analysis; assay type: ADME, organism-based; settings: in vivo
Mus musculus [26] = assay: Apparent unbound clearance in NMRI/ICR CD-1 mouse at 75 mg/kg, sc by LC-MS/MS analysis; assay type: ADME, organism-based; settings: in vivo

C[C@@](CCN1Cc2cc(C#CC#C[C@H]3C[C@@H]3CO)cn2C1=O)(C(=O)NO)S(C)(=O)=O
MIC (Pseudomonas aeruginosa [1]): 0.25 µg/mL (≈ 0.577 µM)
ΔTm [2]: 11.2 °C
ΔTm [3]: 13.2 °C
fold change (FC) (Escherichia coli [4]): 0.8
Fu [5]: 0.009%
Cmax [6]: 22600 ng/mL
solubility at 24 h (physchem [7]): 600 µg/mL (≈ 1380 µM)
MIC (Escherichia coli [8]): 0.12 µg/mL (≈ 0.277 µM)
AUC(0-t) at 24 h (in vivo): 41000 ng·h/mL
MIC (Klebsiella pneumoniae): 0.25 µg/mL (≈ 0.577 µM)
Tmax [9]: 30 min
MIC (Pseudomonas aeruginosa [10]): 0.5 µg/mL (≈ 1.15 µM)
CL/F [11]: 20.2 mL/min/kg
CLu/F (Mus musculus [12]): 2300 mL/min/kg
fold change (FC) (Escherichia coli [13]): 1.8
fAUC [14]: 370 ng·h/mL

C[C@@](CCN1Cc2cc(C#Cc3ccc([C@H](O)CO)cc3)cn2C1=O)(C(=O)NO)S(C)(=O)=O
MIC (Pseudomonas aeruginosa [1]): 1 µg/mL (≈ 2.1 µM)
ΔTm [2]: 11.1 °C
ΔTm [3]: 12.7 °C
fold change (FC) (Escherichia coli [4]): 0.4
Fu [5]: 0.016%
solubility at 24 h (physchem [15]): 605 µg/mL (≈ 1270 µM)
Cmax [6]: 41300 ng/mL
logD (physchem [16]): 0.5
solubility at 24 h (physchem [7]): 167 µg/mL (≈ 351 µM)
MIC (Escherichia coli [8]): 0.5 µg/mL (≈ 1.05 µM)
AUC(0-t) at 24 h (in vivo): 76500 ng·h/mL
MIC (Klebsiella pneumoniae): 1 µg/mL (≈ 2.1 µM)
Tmax [9]: 30 min
MIC (Pseudomonas aeruginosa [10]): 1 µg/mL (≈ 2.1 µM)
CL/F [11]: 10.8 mL/min/kg
CLu/F (Mus musculus [12]): 680 mL/min/kg
fold change (FC) (Escherichia coli [13]): 2.4
fAUC [14]: 1230 ng·h/mL
solubility at 24 h (physchem [17]): 660 µg/mL (≈ 1390 µM)

COc1ccc(-c2ccc3c(c2)oc(=O)n3CC[C@](C)(C(=O)NO)S(C)(=O)=O)c(F)c1
MIC (Pseudomonas aeruginosa [1]): 8 µg/mL (≈ 17.7 µM)
ΔTm [2]: 8.2 °C
ΔTm [3]: 11 °C
solubility at 24 h (physchem [15]): 7 µg/mL (≈ 15.5 µM)
logD (physchem [16]): 2.2
MIC (Escherichia coli [8]): 0.5 µg/mL (≈ 1.11 µM)
MIC (Pseudomonas aeruginosa [18]): ≤ 0.06 µg/mL
MIC (Klebsiella pneumoniae): 4 µg/mL (≈ 8.84 µM)
MIC (Pseudomonas aeruginosa [10]): 4 µg/mL (≈ 8.84 µM)
solubility at 24 h (physchem [17]): 66 µg/mL (≈ 146 µM)

COc1ccc(-c2cc3c(s2)C(=O)N(CC[C@](C)(C(=O)NO)S(C)(=O)=O)C3)c(F)c1
MIC (Pseudomonas aeruginosa [1]): 1 µg/mL (≈ 2.19 µM)
ΔTm [2]: 9.3 °C
ΔTm [3]: 12.4 °C
solubility at 24 h (physchem [15]): 5 µg/mL (≈ 11 µM)
logD (physchem [16]): 2.1
MIC (Escherichia coli [8]): ≤ 0.06 µg/mL
MIC (Pseudomonas aeruginosa [18]): 0.12 µg/mL (≈ 0.263 µM)
MIC (Klebsiella pneumoniae): 0.25 µg/mL (≈ 0.548 µM)
MIC (Pseudomonas aeruginosa [10]): 0.5 µg/mL (≈ 1.1 µM)
solubility at 24 h (physchem [17]): 36 µg/mL (≈ 78.9 µM)

C[C@@](CCN1Cc2cc(C#CC#CC3(N)CC3)cn2C1=O)(C(=O)NO)S(C)(=O)=O.Cl
MIC (Pseudomonas aeruginosa [1]): 0.5 µg/mL
ΔTm [2]: 10 °C
ΔTm [3]: 11.6 °C
AUC(0-t) at 24 h [19]: 14900 ng·h/mL
fold change (FC) (Escherichia coli [4]): 1.8
Fu [5]: 0.078%
solubility at 24 h (physchem [15]): 418 µg/mL
Cmax [6]: 8600 ng/mL
solubility at 24 h (physchem [7]): 571 µg/mL
Tmax [20]: 30 min
MIC (Escherichia coli [8]): 0.25 µg/mL
fAUC [21]: 1160 ng·h/mL
MIC (Klebsiella pneumoniae): 0.25 µg/mL
MIC (Pseudomonas aeruginosa [10]): 0.5 µg/mL
CL/F [22]: 55.9 mL/min/kg
fold change (FC) (Escherichia coli [13]): 2.8
solubility at 24 h (physchem [17]): 536 µg/mL
CLu/F (Mus musculus [23]): 716 mL/min/kg

COc1ccc(-c2ccn(CC[C@](C)(C(=O)NO)S(C)(=O)=O)c(=O)c2)c(F)c1
MIC (Pseudomonas aeruginosa [1]): 0.5 µg/mL (≈ 1.21 µM)
CL/F [24]: 72 mL/min/kg
Fu [5]: 0.31%
solubility at 24 h (physchem [15]): 130 µg/mL (≈ 315 µM)
Cmax [6]: 10300 ng/mL
fAUC [25]: 3620 ng·h/mL
logD (physchem [16]): 1.1
CLu/F (Mus musculus [26]): 231 mL/min/kg
MIC (Escherichia coli [8]): ≤ 0.06 µg/mL
AUC(0-t) at 24 h (in vivo): 11700 ng·h/mL
MIC (Pseudomonas aeruginosa [18]): ≤ 0.06 µg/mL
MIC (Klebsiella pneumoniae): 0.25 µg/mL (≈ 0.606 µM)
MIC (Pseudomonas aeruginosa [10]): 0.25 to 0.5 µg/mL (≈ 0.606 to 1.21 µM)
solubility at 24 h (physchem [17]): 692 µg/mL (≈ 1680 µM)

COc1ccc(-c2cnc3c(c2)CN(CCC(C)(C(=O)NO)S(C)(=O)=O)C3=O)c(F)c1 (racemic)
MIC (Pseudomonas aeruginosa [1]): 32 µg/mL (≈ 70.9 µM)
ΔTm [2]: 5.6 °C
ΔTm [3]: 7 °C
MIC (Escherichia coli [8]): 32 µg/mL (≈ 70.9 µM)
MIC (Pseudomonas aeruginosa [18]): 16 µg/mL (≈ 35.4 µM)
MIC (Klebsiella pneumoniae): > 32 µg/mL
MIC (Pseudomonas aeruginosa [10]): > 32 µg/mL

COc1ccc(-c2cc3n(c2)C(=O)N(CC[C@](C)(C(=O)NO)S(C)(=O)=O)C3)c(F)c1
MIC (Pseudomonas aeruginosa [1]): 1 µg/mL (≈ 2.28 µM)
ΔTm [2]: 8.1 °C
ΔTm [3]: 11.5 °C
solubility at 24 h (physchem [15]): 37 µg/mL (≈ 84.2 µM)
logD (physchem [16]): 1.8
MIC (Escherichia coli [8]): 0.12 µg/mL (≈ 0.273 µM)
MIC (Pseudomonas aeruginosa [18]): 0.12 µg/mL (≈ 0.273 µM)
MIC (Klebsiella pneumoniae): 0.25 µg/mL (≈ 0.569 µM)
MIC (Pseudomonas aeruginosa [10]): 0.5 µg/mL (≈ 1.14 µM)
solubility at 24 h (physchem [17]): 302 µg/mL (≈ 687 µM)
